Holding throughout (assay): LC-MS product assay, Michaelis-Menten fit
What all share (format): biochemical, Lycium barbarum
Holding throughout (conditions): 2.5 mM UDP-Glc, 1 mM MgCl2, 10 mM HEPES pH 7.0, 30 °C

The subject of one series is T1, LbUGT2.
T1 construct: full length; GST fusion (pGEX-2TK) from E. coli Rosetta (DE3)
The source says: LC-MS product assay, Michaelis-Menten fit on LbUGT2

A further series relates to T2, LbUGT4.
T2 construct: full length; GST fusion (pGEX-2TK) from E. coli Rosetta (DE3)
The source says: LC-MS product assay, Michaelis-Menten fit on LbUGT4

Another series relates to T3, LbUGT3.
T3 construct: full length (482 residues by printed domain borders); GST fusion (pGEX-2TK) from E. coli Rosetta (DE3) for assays; crystal protein with GST-His tag removed by TEV
The source says: LC-MS product assay, Michaelis-Menten fit on LbUGT3

Substrate in series [1]: O=C(/C=C/c1ccc(O)c(O)c1)NCCCNCCCCNC(=O)CCc1ccc(O)c(O)c1
The source says: LC-MS product assay, Michaelis-Menten fit on LbUGT1

What is called Km is the concentration of substrate that gives half-maximal velocity. Regarding `O=C(/C=C/c1ccc(O)c(O)c1)NCCCNCCCCNC(=O)CCc1ccc(O)c(O)c1` [compound 1, N^1-caffeoyl-N^10-dihydrocaffeoylspermidine], the Km was 762 µM in the series on LbUGT2, 901 µM with LbUGT4 and 325 µM with LbUGT3.

B1: LbUGT1 (Lycium barbarum) (protein)
chain: LTTKAELVFIPSPGAGHLISAIEIAKLILNRDERLCISVLIMKLPMDFGVQSYVASLSSSPRLQFVDITLDEKTVAGLLKNKESFFTDFIQGHKPKVKDFIHNTSFSKSGSGFSRLAGFVLDMFCTSMIDVASEFSVPSYIFLTSNAAFLALCYHFESLKKEHHIDTSKYKDSDEELTIPGFKNPYPGKFLPRLTTDQTTATTLFFDSVTRFKETKGIMVNTFAELEPFALQSLLVPKIYPVGPVVNFKEGGHGRNSESETESIIKWLDDQPESSVVFLCFGSMGSFDAEQIEEIAVALECSGHRFLWSLRRPPPKGKMELPSNYEDFQEVLPEGFIERTNGVGKVIGWAPQVAVLSHPAVGGFVSHCGWNSVLESLCFGVPIGAWPQYAEQQMNAFELVKQLGLAVEIRMDYFKDFEGKHGPVEIVTAKEIASGIRQLMADGEENEIRKRAKEMKEKSSAAMKEGGSSYASLGLLIEDVISNIS
notes: full length (485 residues by printed domain borders); GST fusion (pGEX-2TK) from E. coli Rosetta (DE3) for assays; crystal protein with MBP-His tag removed by TEV
What is called kcat is the maximal rate divided by the concentration of active sites. What is called kcat/Km is the second-order rate constant that governs catalysis at low substrate concentration. As to B1, in series [1], the Km is 259.4 µM, the kcat stood at 0.0057 s⁻¹ and the kcat/Km came to 22.1 M⁻¹ s⁻¹.

These data come from article PMC11139883, “Functional and structural dissection of glycosyltransferases underlying the glycodiversity of wolfberry-derived bioactive ingredients lycibarbarspermidines” (Nature Communications, 2024).
